Measured values reported in patent US9067894B1, “Compound, composition, and method of activating GIRK potassium channel and use of same for treating conditions of interest” (Vanderbilt University, priority 2013, dated 2015).

Legend:
GIRK2 = target: T1, GIRK2 (Homo sapiens, UniProt P48051); assay: Whole-cell voltage-clamp, GIRK2-expressing HEK-293 cells; type: cell-based; conditions: cell line GIRK2
T1 construct: expressed in transfected cells; host or cells: HEK-293
T1 sequence (P48051 1-423): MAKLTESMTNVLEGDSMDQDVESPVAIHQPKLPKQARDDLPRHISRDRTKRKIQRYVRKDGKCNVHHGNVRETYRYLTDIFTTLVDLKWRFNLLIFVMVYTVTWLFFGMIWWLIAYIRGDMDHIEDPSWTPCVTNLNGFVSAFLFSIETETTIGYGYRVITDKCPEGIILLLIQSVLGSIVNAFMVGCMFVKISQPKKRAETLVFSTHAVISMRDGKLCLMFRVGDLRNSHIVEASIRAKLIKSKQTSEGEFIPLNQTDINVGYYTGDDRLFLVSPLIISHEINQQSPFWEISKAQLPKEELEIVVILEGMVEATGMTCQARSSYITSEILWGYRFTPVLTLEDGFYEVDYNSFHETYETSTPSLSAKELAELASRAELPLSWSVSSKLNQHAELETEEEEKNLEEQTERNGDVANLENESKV
From the text: Cell Line Construction and Cell Culture. HEK-293 cells co-expressing human GIRK1/2 and rat mGlu8 were generated as previously described (Niswender et al., 2008). A HEK-293 cell line (ATCC, Manassas, Va.) expressing human GIRK1 and human GIRK2 was constructed by transfecting HEK-293 cells with GIRK1 and GIRK2 (Origene, Rockville, Md.) cloned into the pBudCE4.1 vector (Life Technologies, Carlsbad, Calif.) using FuGene 6 (Promega, Madison, Wis.) transfection reagent. […]
A single-cell suspension of HEK-293 cells stably transfected with the appropriate ion channels were plated into TC-treated 35 mm polystyrene dishes at ˜15% confluence and incubated overnight in a 5% CO2 cell culture incubator at 37° C. […] Whole cell currents were recorded in 20K extracellular solution at −70 mV using a Pico 1 amplifier (Tecella, Foothill Ranch, Calif.) controlled by WINWCP 4.X (University of Strathclyde, Glasgow, Scotland, UK). […] One day after transfection, cells were plate into 35 mm polystyrene dishes, incubated and recorded as described above. […]
Voltage-clamp data were analyzed by converting current amplitudes to current density by dividing by each cell's membrane capacitance estimated from capacitance compensation. […]

Dopamine D1 = target: T2, Dopamine D1 (Homo sapiens, UniProt P21728); assay: Radioligand displacement (Ricerca); type: binding
T2 construct: Ricerca

[1] = system: L-Type Ca channel (dihydropyridine); assay: Radioligand displacement (Ricerca); type: binding, rat; conditions: 10 μM
Adenosine A2A = target: T3, Adenosine A2A (Homo sapiens, UniProt P29274); assay: Radioligand displacement (Ricerca); type: binding
T3 construct: Ricerca (contract assay)

[2] = Plasma protein binding, equilibrium dialysis; type: in vitro ADME, mouse; conditions: murine plasma
Protocol: Plasma Protein Binding. […] Briefly plasma (220 μL) was added to the 96-well plate containing test article (5 μL) and mixed thoroughly. Subsequently, 200 μl of the plasma-test article mixture was transferred to the cis chamber (red) of the RED plate, with an accompanying 350 μL of phosphate buffer (25 mM, pH 7.4) in the trans chamber. The RED plate was sealed and incubated 4 h at 37° C. with shaking. At completion, 50 μL aliquots from each chamber were diluted 1:1 (50 μL) with either plasma (cis) or buffer (trans) and transferred to a new 96-well plate, at which time ice-cold acetonitrile (2 volumes) was added to extract the matrices. The plate was centrifuged (3000 rcf, 10 min) and supernatant solutions transferred to a new 96-well plate. The sealed plate was stored at −20° C. until LC/MS/MS analysis.
Liquid Chromatography/Mass Spectrometry Analysis. In vitro experiments. VU0456810 was analyzed on a Thermo Electron TSQ Quantum Ultra triple quad mass spectrometer (San Jose, Calif.) via electrospray ionization (ESI) with two Themo Electron Accella pumps (San Jose, Calif.), and a Leap Technologies CTC PAL autosampler (Carrboro, N.C.). Analytes were separated by gradient elution on a dual column system with two Thermo Hypersil Gold (2.1×30 mm, 1.9 μm) columns (San Jose, Calif.) at 40° C. HPLC mobile phase A was 0.1% formic acid in water and mobile phase B was 0.1% formic acid in acetonitrile. […]

Dopamine D4.2 = target: T4, Dopamine D4.2 (Homo sapiens, UniProt P21917, DEL265-296); assay: Radioligand displacement (Ricerca); type: binding
T4 construct: Ricerca
T4 sequence (P21917 with tags, fused parts or gaps DEL265-296): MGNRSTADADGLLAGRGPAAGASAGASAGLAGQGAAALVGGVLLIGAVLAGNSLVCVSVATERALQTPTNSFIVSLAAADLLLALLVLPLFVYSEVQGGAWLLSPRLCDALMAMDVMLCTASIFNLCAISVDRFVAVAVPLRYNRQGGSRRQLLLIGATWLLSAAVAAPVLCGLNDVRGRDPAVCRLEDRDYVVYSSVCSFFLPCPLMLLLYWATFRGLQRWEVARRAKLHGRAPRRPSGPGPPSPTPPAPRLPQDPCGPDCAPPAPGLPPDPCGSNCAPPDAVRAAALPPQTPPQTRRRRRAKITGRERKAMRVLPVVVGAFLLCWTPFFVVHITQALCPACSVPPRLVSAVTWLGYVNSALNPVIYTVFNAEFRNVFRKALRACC

T2 sequence (P21728 whole entry): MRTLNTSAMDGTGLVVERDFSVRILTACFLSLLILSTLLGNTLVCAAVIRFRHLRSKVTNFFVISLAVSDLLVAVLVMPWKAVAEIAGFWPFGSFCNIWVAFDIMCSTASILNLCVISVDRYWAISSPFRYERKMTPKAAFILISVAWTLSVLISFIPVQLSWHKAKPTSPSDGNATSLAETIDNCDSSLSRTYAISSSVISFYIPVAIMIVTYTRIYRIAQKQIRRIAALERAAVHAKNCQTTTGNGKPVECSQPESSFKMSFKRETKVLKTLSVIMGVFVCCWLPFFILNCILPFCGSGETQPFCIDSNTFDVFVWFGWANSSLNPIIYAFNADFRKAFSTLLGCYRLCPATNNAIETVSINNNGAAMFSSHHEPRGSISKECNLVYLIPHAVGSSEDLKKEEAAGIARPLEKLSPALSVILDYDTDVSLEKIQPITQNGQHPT
T3 sequence (P29274 whole entry): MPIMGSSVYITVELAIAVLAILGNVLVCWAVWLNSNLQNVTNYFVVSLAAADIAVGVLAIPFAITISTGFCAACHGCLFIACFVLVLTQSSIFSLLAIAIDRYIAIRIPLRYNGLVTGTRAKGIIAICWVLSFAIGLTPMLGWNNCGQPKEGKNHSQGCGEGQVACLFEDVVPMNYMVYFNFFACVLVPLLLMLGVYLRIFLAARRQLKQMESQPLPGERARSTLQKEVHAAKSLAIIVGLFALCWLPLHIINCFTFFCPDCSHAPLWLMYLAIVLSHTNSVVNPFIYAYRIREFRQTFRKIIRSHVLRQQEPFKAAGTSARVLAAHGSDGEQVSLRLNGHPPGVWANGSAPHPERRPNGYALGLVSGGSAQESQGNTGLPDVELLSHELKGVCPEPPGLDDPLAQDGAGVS

Question: For Cc1cc(NC(=O)Nc2ccc(F)c(F)c2)n(-c2ccccc2)n1 [VU0456810, 1-(3,4-difluorophenyl)-3-(3-methyl-1-phenyl-1H-pyrazol-5-yl)urea], which “EC50 Voltage Clamp” value (GIRK2) is on record?
Answer: Its value is “Inactive”.

Question: What about the inhibition at 10 µM (Dopamine D1) of the same molecule?
Answer: The inhibition at 10 µM was -5%.

Question: What about the “% Inhibition” value [1] of the same molecule?
Answer: The value was 3%.

Question: What about the inhibition at 10 µM (Adenosine A2A) of the same molecule?
Answer: Its inhibition at 10 µM is 12%.

Question: What about the “Plasma Protein Binding” value [2] of the same molecule?
Answer: The value was 3 % fu.

Question: What about the inhibition at 10 µM (Dopamine D4.2) of the same molecule?
Answer: Its inhibition at 10 µM is 4%.
